Assay results from patent US3930838A, “S-benzyl-N,N-disec-butylthiocarbamate and its use as a rice field herbicide and a rice growth stimulant” (priority 1970, dated 1976).
Several values for one entry are separate records, joined by “and”; a condition that tells them apart may be missing. Equal values may be shown once.

Experiments:
[1] = Acute oral toxicity, mice; details: mouse, in vivo
rice [2] = test: Open field test on rice, biometric controls (Example 10); type: in vivo, rice cv. RIBE; details: 36 days
Protocol: (§1) In the province of Novara, Italy, a test was performed outdoors in clay soil. For each treatment, a 600 m^2 plot provided with independent water feed was prepared. After soil working and leveling, the treatment was effected on Apr. 23, 1970, using formulations in emulsifiable oils of M3432 and of molinate, sprayed by means of mechanical devices. Only the plot treated with molinate was harrowed just after treatment in order to incorporate the product and to avoid any losses of same due to volatilization. Immediately afterwards, the plots were flooded to a water level of 10-12 cm.
Pre-germinated cv. RIBE rice was mechanically sowed broadcast on Apr. 25, 1970.
36 Days after the treatment, 50 rice plants were taken at random from each plot and subjected to biometric controls.

rice [3] = test: Stimulating action on rice, general statement; details: in vivo
rice [4] = test: Rice seed treatment, 5000 square meter field plots, test No. 3, rice (Example 17); type: in vivo; details: 67 days; for Rice tiller dry weight / Rice tiller number: single 1 m^2 testing area
Protocol: (§2) A further test was carried out outdoors on loam soil on plots of about 5000 square meters surface.
(§3) After flooding each plot, seeds treated as in Test No. […] In all cases, the seen quantity was 150 kg./ha. 67 days after sowing, the results were gathered on 5 representative testing areas of 1 square meter each for each dosage level.

Echinocloa spp. [5] = test: Outdoor infestation degree in rice plots (Example 15); type: in vivo; details: for Infestation degree, plants per 10 square meters: 2 months
Protocol: as §1
(§4) A clear confirmation of the efficiency of M3432 towards Echinocloa spp. was obtained outdoors, where the test was carried out under conditions which are characteristic of Italian rice growing. The experimental conditions are described in Example 10.

Alisma sp. = test: as above; type: in vivo; details: 36 days
Protocol: as §1, §4

Scirpus sp. = test: as above; type: in vivo; details: 36 days
Protocol: as §1, §4

Barnyard grass = test: Rice seed treatment, 5000 square meter field plots, test No. 3, barnyard grass (Example 17); type: in vivo; details: 67 days; for Barnyard grass tiller number: single 1 m^2 testing area
Protocol: as §2, §3

[6] = Solubility and volatility; type: physicochemical
Echinocloa spp. [7] = test: Pre-emergence activity on Echinocloa in flooded cultures, pots (Example 13); type: in vivo
Protocol: Into a set of cylindrical pots having a 200 cm^2 internal surface, sieved rice field earth in a quantity of 1 kg. per pot was introduced. After leveling and wetting with 200 cc. of water, the earth surface of the pots was uniformly sprayed with hydroacetone solutions containing, respectively, 0, 0.2, 0.3, and 0.4% active product (a.p.). 4 Ml. of the solution were sprayed onto each pot, so that the amount of active product in a set of four pots was 0, 4, 6, and 8 kg./ha., respectively. Immediately after spraying, each pot was filled with water to a level of 7 cm. over the soil surface. Thereafter, the sowing was carried out at the rate of 15 pre-germinated rice seeds per pot. Three repetitions were performed for each treatment. The pots were kept in an air-conditioned atmosphere with a daily temperature variation between 10° and 25°C and a 14 hour per day light period. […]
The same method described in Example 7 was adopted, the only variations being the doses (0, 0.5, 1, 2 and 4 kg./ha.). the type of formulation and the sowing of Echinocloa spp. (25 slightly pre-germinated seeds per pot) instead of rice.

Echinocloa spp. [8] = test: Activity on Echinocloa in flooded hothouse boxes, first sowing (Example 14); type: in vivo; details: 24 days
Protocol: A test was arranged in a hothouse on a set of boxes having a 1,000 cm^2 internal surface. 18 Kg. of sieved rice field earth were put into each box. After leveling, the earth surfaces of each of a set of six boxes were uniformly sprayed with hydroacetone solutions containing, respectively, 0, 0.5, 0.75, 1, 1.25, and 1.5% of M3432. […] Each box was flooded with a 10 cm. water layer measured from the earth surface. The sowing was carried out immediately afterwards with a pre-germinated (cv) RIBE rice seed, employing a quantity of 40 seeds per box.
(§5) The same method described in Example 9 was followed, the only variation being in sowing Echinocloa spp. (40 slightly pregerminated seeds per box) instead of rice.
24 Days after the treatment, the results were observed.

grass (Echinocloa spp.) = test: Residual activity, second sowing with grass 24 days after treatment (Example 14); type: in vivo; details: additional 24 days
Protocol: as §5
After the Echinocloa spp. plants were killed, a second sowing with grass was carried out in the same boxes, 24 days after the treatment, employing 20 slightly pre-germinated seeds per box.

rats = details: os, literature values; cited from earlier work
[9] = Test No. 1, hydroacetone solution, 2 kg./ha., 22 days
[10] = Test No. 1, hydroacetone solution, 4 kg./ha., 22 days
[11] = Test No. 2, hydroacetone solution, 0.5 kg./ha., 21 days
[12] = Test No. 2, hydroacetone solution, 1 kg./ha., 21 days
[13] = Test No. 2, hydroacetone solution, 2 kg./ha., 21 days
[14] = Test No. 3, 50% emulsifiable oil, 2 kg./ha., 27 days
[15] = Test No. 3, 50% emulsifiable oil, 4 kg./ha., 27 days
[16] = Test No. 3, hydroacetone solution, 2 kg./ha., 27 days
[17] = Test No. 3, hydroacetone solution, 4 kg./ha., 27 days

CCC(C)N(C(=O)SCc1ccccc1)C(C)CC (centres unmarked) [M3432, S-benzyl-N,N-disec.butylthiocarbamate]
LD50 [1]: 8000 mg/kg
Main root (rice [2]; 4 kg./ha.): 9.29 cm.
Roots, average weight per plant on dry basis (rice [2]; 4 kg./ha.): 2.431 g
Secondary roots (rice [2]; 4 kg./ha.): 9.64 no.
Shoot (rice [2]; 4 kg./ha.): 29.22 cm.
Shoot, average weight per plant on dry basis (rice [2]; 4 kg./ha.): 4.073 g
Total, average weight per plant on dry basis (rice [2]; 4 kg./ha.): 6.504 g
Main root (rice [2]; 6 kg./ha.): 10.19 cm.
Roots, average weight per plant on dry basis (rice [2]; 6 kg./ha.): 3.123 g
Secondary roots (rice [2]; 6 kg./ha.): 10.42 no.
Shoot (rice [2]; 6 kg./ha.): 30.17 cm.
Shoot, average weight per plant on dry basis (rice [2]; 6 kg./ha.): 4.209 g
Total, average weight per plant on dry basis (rice [2]; 6 kg./ha.): 7.341 g
Malformations of rice (rice [3]): no malformations are noticed
Rice tiller dry weight (rice [4]; 3.4 kg./ha.): 254.50 (g.)/m^2 and 331.10 (g.)/m^2 and 301.08 (g.)/m^2 and 373.50 (g.)/m^2 and 332.00 (g.)/m^2
Rice tiller number (rice [4]; 3.4 kg./ha.): 432 (no.)/m^2 and 430 (no.)/m^2 and 421 (no.)/m^2 and 417 (no.)/m^2 and 392 (no.)/m^2
Rice tiller dry weight, average on 5 testing areas (rice [4]; 3.6 kg./ha.): 318.44 (g.)/m^2
Rice tiller number, average on 5 testing areas (rice [4]; 3.6 kg./ha.): 418.4 (no.)/m^2
Rice tiller dry weight, average on 5 testing areas (rice [4]; 4.0 kg./ha.): 438.01 (g.)/m^2
Rice tiller number, average on 5 testing areas (rice [4]; 4.0 kg./ha.): 559.0 (no.)/m^2
Rice tiller dry weight (rice [4]; 4.0 kg./ha.): 473.98 (g.)/m^2 and 316.91 (g.)/m^2 and 484.50 (g.)/m^2 and 423.55 (g.)/m^2 and 491.10 (g.)/m^2
Rice tiller number (rice [4]; 4.0 kg./ha.): 599 (no.)/m^2 and 440 (no.)/m^2 and 687 (no.)/m^2 and 523 (no.)/m^2 and 546 (no.)/m^2
Infestation degree, plants per 10 square meters (Echinocloa spp. [5]; 4 kg./ha.): 0.25 no.
Infestation degree, plants per 10 square meters (Echinocloa spp. [5]; 6 kg./ha.): 0.33 no.
Infestation degree (Alisma sp.; 4 kg./ha.): low (low = 0.5-1 plants per m^2)
Infestation degree (Alisma sp.; 6 kg./ha.): low (low = 0.5-1 plants per m^2)
Infestation degree (Scirpus sp.; 4 kg./ha.): low (low = 0.5-1 plants per m^2)
Infestation degree (Scirpus sp.; 6 kg./ha.): low (low = 0.5-1 plants per m^2)
Barnyard grass tiller number (Barnyard grass; 3.4 kg./ha.): 0 (no.)/m^2
Barnyard grass tiller number, average on 5 testing areas (Barnyard grass; 3.6 kg./ha.): 0 (no.)/m^2
Barnyard grass tiller number, average on 5 testing areas (Barnyard grass; 4.0 kg./ha.): 0 (no.)/m^2
Barnyard grass tiller number (Barnyard grass; 4.0 kg./ha.): 0 (no.)/m^2
Volatility [6]: not volatile
Solubility in organic solvents ([6]; benzene, ether, heptane, methanol, cyclohexanone, acetone, methyl chloride, dichloroethane): soluble
Solubility in water ([6]; water): practically insoluble
Main root (Echinocloa spp. [7]; [9]): 0 cm.
Shoot (Echinocloa spp. [7]; [9]): 0 cm.
Stand (Sprouted plants) (Echinocloa spp. [7]; [9]): 0%
Main root (Echinocloa spp. [7]; [10]): 0 cm.
Shoot (Echinocloa spp. [7]; [10]): 0 cm.
Stand (Sprouted plants) (Echinocloa spp. [7]; [10]): 0%
Main root (Echinocloa spp. [7]; [11]): 3.28 cm.
Shoot (Echinocloa spp. [7]; [11]): 8.81 cm.
Stand (Echinocloa spp. [7]; [11]): 62%
Main root (Echinocloa spp. [7]; [12]): 0 cm.
Shoot (Echinocloa spp. [7]; [12]): 0 cm.
Stand (Echinocloa spp. [7]; [12]): 0%
Main root (Echinocloa spp. [7]; [13]): 0 cm.
Shoot (Echinocloa spp. [7]; [13]): 0 cm.
Stand (Echinocloa spp. [7]; [13]): 0%
Main root (Echinocloa spp. [7]; [14]): 0 cm.
Shoot (Echinocloa spp. [7]; [14]): 0 cm.
Stand (Echinocloa spp. [7]; [14]): 0%
Main root (Echinocloa spp. [7]; [15]): 0 cm.
Shoot (Echinocloa spp. [7]; [15]): 0 cm.
Stand (Echinocloa spp. [7]; [15]): 0%
Main root (Echinocloa spp. [7]; [16]): 0 cm.
Shoot (Echinocloa spp. [7]; [16]): 0 cm.
Stand (Echinocloa spp. [7]; [16]): 0%
Main root (Echinocloa spp. [7]; [17]): 0 cm.
Shoot (Echinocloa spp. [7]; [17]): 0 cm.
Stand (Echinocloa spp. [7]; [17]): 0%
Shoot (Echinocloa spp. [8]; 2 kg./ha.): 8.5 cm.
Stand (Echinocloa spp. [8]; 2 kg./ha.): 2.5%
Shoot (Echinocloa spp. [8]; 4 kg./ha.): 0 cm.
Stand (Echinocloa spp. [8]; 4 kg./ha.): 0%
Shoot (Echinocloa spp. [8]; 6 kg./ha.): 0 cm.
Stand (Echinocloa spp. [8]; 6 kg./ha.): 0%
Shoot (Echinocloa spp. [8]; 8 kg./ha.): 0 cm.
Stand (Echinocloa spp. [8]; 8 kg./ha.): 0%
Shoot (grass (Echinocloa spp.); 2 kg./ha.): 26.5 cm.
Stand (grass (Echinocloa spp.); 2 kg./ha.): 100%
Shoot (grass (Echinocloa spp.); 4 kg./ha.): 27.0 cm.
Stand (grass (Echinocloa spp.); 4 kg./ha.): 65%
Shoot (grass (Echinocloa spp.); 6 kg./ha.): 0 cm.
Stand (grass (Echinocloa spp.); 6 kg./ha.): 0%
Shoot (grass (Echinocloa spp.); 8 kg./ha.): 0 cm.
Stand (grass (Echinocloa spp.); 8 kg./ha.): 0%

CCSC(=O)N1CCCCCC1 [Molinate, ethyl-1-hexamethylene-imino-carbothiolate, reference compound]
Main root (rice [2]; 4 kg./ha.): 7.67 cm.
Roots, average weight per plant on dry basis (rice [2]; 4 kg./ha.): 1.866 g
Secondary roots (rice [2]; 4 kg./ha.): 9.06 no.
Shoot (rice [2]; 4 kg./ha.): 25.72 cm.
Shoot, average weight per plant on dry basis (rice [2]; 4 kg./ha.): 3.257 g
Total, average weight per plant on dry basis (rice [2]; 4 kg./ha.): 5.123 g
Infestation degree, plants per 10 square meters (Echinocloa spp. [5]; 4 kg./ha.): 1-2 no.
Infestation degree (Echinocloa spp. [5]; 4 kg./ha., 36 days): almost nil (almost nil = 0.1 plants per m^2)
Infestation degree (Alisma sp.; 4 kg./ha.): moderate (moderate = 1 - 4 plants per m^2)
Infestation degree (Scirpus sp.; 4 kg./ha.): moderate (moderate = 1 - 4 plants per m^2)
Acute toxicity LD50 (rats): 500 to 725 mg/kg
Main root (Echinocloa spp. [7]; [10]): 0 cm.
Shoot (Echinocloa spp. [7]; [10]): 0 cm.
Stand (Sprouted plants) (Echinocloa spp. [7]; [10]): 0%
